# Measurements reported in patent US20220162192A1 (ESCAPE Bio, Inc., priority 2019, published 2022).
# pIC50: −log10 of the molar value. Read-outs that look alike come from different tables or passages of the source.
# What was measured:
# [1] = biological target: T1, Recombinant wild type LRRK2 protein (Homo sapiens, UniProt Q5S007); assay: LanthaScreen Kinase Activity Assay (TR-FRET), wild type LRRK2; type: biochemical; details: 25 μM ATP, 400 nM LRRKtide, 2.9 nM kinase, 60 min at room temperature, read-out: LRRK2 WT IC50
# T1 construct: purchased Life Technologies PR8604B
# Description: (§1) LRRK2 kinase activity was measured using a LanthaScreen™ Kinase Activity Assay from ThermoFisher Scientific. Recombinant wild type or G2019S-LRRK2 protein (Life Technologies, PR8604B or PV4881, respectively), was incubated with a fluorescein-labeled peptide substrate called LRRKtide that is based upon ezrin/radixin/moesin (ERM) (Life Technologies, PV4901) in the presence of ATP and serially diluted compound. After an incubation period of 1 hr, the phosphotransferase activity was stopped and a terbium-labelled anti-pERM antibody (Life Technologies, PV4899) was added to detect the phosphorylation of LRRKtide by measuring the time resolved-Forster resonant energy transfer (TR-FRET) signal from the terbium label on the antibody to the fluorescein tag on LRRKtide, expressed as the 520 nm/495 nm emission ratio. Compound-dependent inhibition of the TR-FRET signal was used to generate a concentration-response curve for IC50 determination.
# (§2) The assay was carried out under the following protocol conditions: 1 mM compound in DMSO was serially diluted 1:3, 11 points in DMSO with a Biomek FX and 0.1 μL of the diluted compound was subsequently stamped into the assay plate (384-well format Lumitrac 200, Greiner, 781075) with an Echo Labcyte such that the final compound concentration in the assay was 10 μM to […]. Subsequently, 5 μL of 2× kinase solution (2.9 nM final concentration) was added to the assay plate in assay buffer composed of 50 mM Tris pH 8.5 (Sigma, T6791), 5 mM MgCl2 (Fluka, 63020), 1 mM EGTA (Sigma, E3889), 0.01% BRIJ-35 (Sigma, P1254) and 2 mM DTT. The reaction was started by addition of 2×ATP/LRRKtide solution in assay buffer such that the final concentration was 400 nM LRRKtide and 25 μM ATP. After 60 min incubation at room temperature, the reaction was stopped by addition of […] containing a final concentration of 2 nM anti-pERM antibody and 10 mM EDTA. After a 30 min incubation at RT, the TR-FRET signal was measured on a Wallac 2104 EnVision® multilabel reader at an excitation wavelength of 340 nm and reading emission at 520 nm and 495 nm. The ratio of the 520 nm and 495 nm emission was used to analyze the data.
# [2] = biological target: T2, Recombinant G2019S-LRRK2 protein (Homo sapiens, UniProt Q5S007, G2019S); assay: LanthaScreen Kinase Activity Assay (TR-FRET), G2019S-LRRK2; type: biochemical; details: class symbols; 25 μM ATP, 400 nM LRRKtide, 2.9 nM kinase, 60 min at room temperature
# T2 construct: purchased Life Technologies PV4881
# Description: as §1, §2
# T2 sequence (Q5S007 whole entry G2019S): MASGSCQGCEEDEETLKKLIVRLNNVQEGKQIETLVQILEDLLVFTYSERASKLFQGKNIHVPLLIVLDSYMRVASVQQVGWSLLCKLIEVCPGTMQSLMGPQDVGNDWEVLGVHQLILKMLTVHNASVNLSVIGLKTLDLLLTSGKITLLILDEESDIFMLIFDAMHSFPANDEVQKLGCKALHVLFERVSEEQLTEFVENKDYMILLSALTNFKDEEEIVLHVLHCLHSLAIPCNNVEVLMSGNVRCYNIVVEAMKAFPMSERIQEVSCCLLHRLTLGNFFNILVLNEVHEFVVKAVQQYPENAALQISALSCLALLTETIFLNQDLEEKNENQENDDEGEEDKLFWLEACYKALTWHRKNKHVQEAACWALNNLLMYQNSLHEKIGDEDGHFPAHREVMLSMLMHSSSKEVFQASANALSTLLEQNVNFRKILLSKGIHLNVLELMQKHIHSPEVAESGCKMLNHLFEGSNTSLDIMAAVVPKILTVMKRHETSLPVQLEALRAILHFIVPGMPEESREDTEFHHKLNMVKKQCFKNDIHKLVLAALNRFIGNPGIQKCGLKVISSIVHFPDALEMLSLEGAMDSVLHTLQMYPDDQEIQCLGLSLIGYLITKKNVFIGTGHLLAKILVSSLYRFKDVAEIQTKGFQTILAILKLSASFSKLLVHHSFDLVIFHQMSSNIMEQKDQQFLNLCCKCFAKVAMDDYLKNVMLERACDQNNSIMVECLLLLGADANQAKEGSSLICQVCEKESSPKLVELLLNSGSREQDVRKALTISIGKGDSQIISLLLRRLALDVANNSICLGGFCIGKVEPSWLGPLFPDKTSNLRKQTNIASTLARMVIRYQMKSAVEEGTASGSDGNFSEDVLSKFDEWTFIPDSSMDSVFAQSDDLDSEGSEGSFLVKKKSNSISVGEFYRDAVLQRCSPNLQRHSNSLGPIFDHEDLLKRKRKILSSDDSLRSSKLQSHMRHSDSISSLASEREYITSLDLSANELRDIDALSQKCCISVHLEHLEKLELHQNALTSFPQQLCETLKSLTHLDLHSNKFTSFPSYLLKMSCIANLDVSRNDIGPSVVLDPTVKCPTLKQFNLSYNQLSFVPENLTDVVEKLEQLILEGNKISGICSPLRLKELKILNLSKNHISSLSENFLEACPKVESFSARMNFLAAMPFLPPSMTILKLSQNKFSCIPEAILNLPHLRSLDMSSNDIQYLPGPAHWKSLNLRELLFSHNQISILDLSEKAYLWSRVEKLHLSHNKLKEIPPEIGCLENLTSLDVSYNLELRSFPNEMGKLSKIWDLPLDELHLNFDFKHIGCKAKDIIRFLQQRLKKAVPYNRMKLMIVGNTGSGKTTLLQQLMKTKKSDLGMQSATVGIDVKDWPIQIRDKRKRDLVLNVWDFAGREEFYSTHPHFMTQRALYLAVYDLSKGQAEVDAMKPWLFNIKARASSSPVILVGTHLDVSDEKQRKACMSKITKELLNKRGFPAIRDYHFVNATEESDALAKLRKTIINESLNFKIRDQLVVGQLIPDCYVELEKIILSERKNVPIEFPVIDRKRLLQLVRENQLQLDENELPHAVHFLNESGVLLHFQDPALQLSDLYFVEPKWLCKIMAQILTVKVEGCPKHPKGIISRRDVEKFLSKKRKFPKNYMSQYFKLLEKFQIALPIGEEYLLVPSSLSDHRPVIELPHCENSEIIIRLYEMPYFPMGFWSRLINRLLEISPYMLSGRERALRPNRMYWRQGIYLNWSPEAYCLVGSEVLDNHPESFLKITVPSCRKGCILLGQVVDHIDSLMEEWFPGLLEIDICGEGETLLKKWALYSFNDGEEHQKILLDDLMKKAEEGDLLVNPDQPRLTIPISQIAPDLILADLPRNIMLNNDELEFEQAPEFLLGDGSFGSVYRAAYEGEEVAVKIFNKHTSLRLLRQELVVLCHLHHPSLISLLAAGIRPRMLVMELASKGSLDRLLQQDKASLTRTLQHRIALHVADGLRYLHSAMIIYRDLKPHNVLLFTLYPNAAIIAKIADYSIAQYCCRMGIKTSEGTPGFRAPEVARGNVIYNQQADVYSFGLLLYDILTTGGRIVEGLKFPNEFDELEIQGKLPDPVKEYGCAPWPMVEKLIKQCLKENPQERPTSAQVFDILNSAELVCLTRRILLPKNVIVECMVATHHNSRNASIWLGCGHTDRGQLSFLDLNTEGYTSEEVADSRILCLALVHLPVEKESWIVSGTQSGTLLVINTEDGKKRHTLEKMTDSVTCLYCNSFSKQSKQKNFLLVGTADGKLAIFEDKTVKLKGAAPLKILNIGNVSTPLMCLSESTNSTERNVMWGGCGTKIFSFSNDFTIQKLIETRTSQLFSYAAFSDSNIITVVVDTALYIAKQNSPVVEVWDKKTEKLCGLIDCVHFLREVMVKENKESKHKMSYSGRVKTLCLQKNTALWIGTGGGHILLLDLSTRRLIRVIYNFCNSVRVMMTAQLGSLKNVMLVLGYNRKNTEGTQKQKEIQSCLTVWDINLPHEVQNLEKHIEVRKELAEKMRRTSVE
# T1 sequence (Q5S007 whole entry): as the sequence (Q5S007 whole entry G2019S) above, with S2019G counted along it
Structure (SMILES),pIC50 ([1]; class symbols),pIC50 [2],pIC50 ([1]; numeric bound instead of class symbol)
"Cn1ncc2c(F)c(C(=O)Nc3ccc4[nH]nc(-c5ccccc5O)c4c3)c(F)cc21 [Example 75, 4,6-Difluoro-N-(3-(2-hydroxyphenyl)-1H-indazol-5-yl)-1-methyl-1H-indazole-5-carboxamide]",5.00 to 6.00,6.00 to 7.00,
"Cn1cc(-c2n[nH]c3ccc(NC(=O)c4c(F)cc5c(cnn5C)c4F)cc23)c(C(F)(F)F)n1 [Example 92, 4,6-Difluoro-1-methyl-N-(3-(1-methyl-3-(trifluoromethyl)-1H-pyrazol-4-yl)-1H-indazol-5-yl)-1H-indazole-5-carboxamide]",6.00 to 7.00,≥ 7.00,
"Cc1cc2[nH]cnc2cc1C(=O)Nc1ccc2[nH]nc(-c3ccccc3)c2c1 [Example 19, 6-Methyl-N-(3-phenyl-1H-indazol-5-yl)-1H-benzo[d]imidazole-5-carboxamide]",6.00 to 7.00,≥ 7.00,
"Cc1cc(-c2n[nH]c3ccc(NC(=O)c4c(F)cc5c(cnn5C)c4F)cc23)c(C)o1 [Example 101, N-(3-(2,5-Dimethylfuran-3-yl)-1H-indazol-5-yl)-4,6-difluoro-1-methyl-1H-indazole-5-carboxamide]",6.00 to 7.00,≥ 7.00,
"Cc1cn2cncc2cc1C(=O)Nc1ccc2[nH]nc(-c3ccoc3)c2c1 [Example 152, N-(3-(Furan-3-yl)-1H-indazol-5-yl)-6-methylimidazo[1,5-a]pyridine-7-carboxamide]",≥ 7.00,≥ 7.00,
"Cc1cc2c(cnn2C)c(C)c1C(=O)Nc1ccc2[nH]nc(-c3ccoc3)c2c1 [Example 157, N-(3-(Furan-3-yl)-1H-indazol-5-yl)-1,4,6-trimethyl-1H-indazole-5-carboxamide]",≥ 7.00,≥ 7.00,
"Cc1cc2[nH]cnc2cc1C(=O)Nc1ccc2[nH]nc(Br)c2c1 [Example 18, N-(3-Bromo-1H-indazol-5-yl)-6-methyl-1H-benzo[d]imidazole-5-carboxamide]",6.00 to 7.00,6.00 to 7.00,
"Cc1c(C(=O)Nc2ccc3[nH]nc(-c4ccccc4)c3c2)ccc2cncn12 [Example 62, 5-Methyl-N-(3-phenyl-1H-indazol-5-yl)imidazo[1,5-a]pyridine-6-carboxamide]",6.00 to 7.00,≥ 7.00,
"Cc1cc2c(C)nnn2c(C)c1C(=O)Nc1ccc2[nH]nc(-c3ccccc3)c2c1 [Example 64, 3,5,7-Trimethyl-N-(3-phenyl-1H-indazol-5-yl)-[1,2,3]triazolo[1,5-a]pyridine-6-carboxamide]",6.00 to 7.00,≥ 7.00,
"Cc1cc2nncn2c(C)c1C(=O)Nc1ccc2[nH]nc(C)c2c1 [Example 61, 5,7-Dimethyl-N-(3-methyl-1H-indazol-5-yl)-[1,2,4]triazolo[4,3-a]pyridine-6-carboxamide]",6.00 to 7.00,≥ 7.00,
"O=C(Nc1ccc2[nH]nc(-c3ccoc3)c2c1)c1nc2ccncc2s1 [Example 171, N-(3-(Furan-3-yl)-1H-indazol-5-yl)thiazolo[5,4-c]pyridine-2-carboxamide]",≥ 7.00,≥ 7.00,
"Cc1cc2cnnn2c(C)c1C(=O)Nc1ccc2[nH]nc(C)c2c1 [Example 49, 5,7-Dimethyl-N-(3-methyl-1H-indazol-5-yl)-[1,2,3]triazolo[1,5-a]pyridine-6-carboxamide]",5.00 to 6.00,≥ 7.00,
"O=C(Nc1ccc2[nH]nc(-c3ccccc3)c2c1)c1cc2[nH]ncc2cc1C(F)(F)F [Example 70, N-(3-Phenyl-1H-indazol-5-yl)-5-(trifluoromethyl)-1H-indazole-6-carboxamide]",6.00 to 7.00,≥ 7.00,
"O=C(Nc1ccc2[nH]nc(-c3ccoc3)c2c1)C1CCc2cncn2C1 (single isomer, unassigned) [Example 173b]",5.00 to 6.00,5.00 to 6.00,
"Cc1n[nH]c2ccc(NC(=O)c3ccc4nn[nH]c4c3)cc12 [Example 9, N-(3-Methyl-1H-indazol-5-yl)-1H-benzo[d][1,2,3]triazole-6-carboxamide]",5.00 to 6.00,5.00 to 6.00,
"Cc1cc2cc[nH]c2cc1C(=O)Nc1ccc2[nH]nc(-c3ccccc3)c2c1 [Example 22, 5-Methyl-N-(3-phenyl-1H-indazol-5-yl)-1H-indole-6-carboxamide]",5.00 to 6.00,6.00 to 7.00,
"O=C(Nc1ccc2[nH]nc(-c3ccoc3)c2c1)c1cnc2ccnn2c1 [Example 130, N-(3-(Furan-3-yl)-1H-indazol-5-yl)pyrazolo[1,5-a]pyrimidine-6-carboxamide]",6.00 to 7.00,6.00 to 7.00,
"Cc1cc2c(cnn2C)nc1C(=O)Nc1ccc2[nH]nc(-c3cnco3)c2c1 [Example 160, 1,6-Dimethyl-N-(3-(oxazol-5-yl)-1H-indazol-5-yl)-1H-pyrazolo[4,3-b]pyridine-5-carboxamide]",≥ 7.00,≥ 7.00,
"Cn1ncc2c(F)c(C(=O)Nc3ccc4[nH]nc(-c5ccccc5OC(F)(F)F)c4c3)c(F)cc21 [Example 93, 4,6-Difluoro-1-methyl-N-(3-(2-(trifluoromethoxy)phenyl)-1H-indazol-5-yl)-1H-indazole-5-carboxamide]",,5.00 to 6.00,< 5.00
"COc1cnccc1-c1n[nH]c2ccc(NC(=O)c3c(F)cc4c(cnn4C)c3F)cc12 [Example 103, 4,6-Difluoro-N-(3-(3-methoxypyridin-4-yl)-1H-indazol-5-yl)-1-methyl-1H-indazole-5-carboxamide]",6.00 to 7.00,≥ 7.00,
"CCCc1n[nH]c2ccc(NC(=O)c3c(F)cc4c(cnn4C)c3F)cc12 [Example 99, 4,6-Difluoro-1-methyl-N-(3-propyl-1H-indazol-5-yl)-1H-indazole-5-carboxamide]",6.00 to 7.00,≥ 7.00,
"COc1ccc(C)c(-c2n[nH]c3ccc(NC(=O)c4c(F)cc5c(cnn5C)c4F)cc23)c1 [Example 90, 4,6-Difluoro-N-(3-(5-methoxy-2-methylphenyl)-1H-indazol-5-yl)-1-methyl-1H-indazole-5-carboxamide]",5.00 to 6.00,6.00 to 7.00,
"O=C(Nc1ccc2[nH]nc(-c3ccoc3)c2c1)c1ccc2snnc2c1 [Example 121, N-(3-(Furan-3-yl)-1H-indazol-5-yl)benzo[d][1,2,3]thiadiazole-5-carboxamide]",≥ 7.00,≥ 7.00,
"Cn1ncc2c(F)c(C(=O)Nc3ccc4[nH]nc(C(F)(F)F)c4c3)c(F)cc21 [Example 115, 4,6-Difluoro-1-methyl-N-(3-(trifluoromethyl)-1H-indazol-5-yl)-1H-indazole-5-carboxamide]",6.00 to 7.00,≥ 7.00,
"Cn1cc2nc(C(=O)Nc3ccc4[nH]nc(-c5cnco5)c4c3)ccc2n1 [Example 166, 2-Methyl-N-(3-(oxazol-5-yl)-1H-indazol-5-yl)-2H-pyrazolo[4,3-b]pyridine-5-carboxamide]",6.00 to 7.00,≥ 7.00,
"Cc1n[nH]c2ccc(NC(=O)c3c(Cl)cn4cnnc4c3Cl)cc12 [Example 56, 6,8-Dichloro-N-(3-methyl-1H-indazol-5-yl)-[1,2,4]triazolo[4,3-a]pyridine-7-carboxamide]",6.00 to 7.00,≥ 7.00,
"Cc1cc2nn[nH]c2cc1C(=O)Nc1ccc2[nH]nc(-c3cccc(N4CCOCC4)c3)c2c1 [Example 2, 5-Methyl-N-(3-(3-morpholinophenyl)-1H-indazol-5-yl)-1H-benzo[d][1,2,3]triazole-6-carboxamide]",≥ 7.00,≥ 7.00,
"Cn1ncc2c(F)c(C(=O)Nc3ccc4[nH]nc(-c5ccno5)c4c3)c(F)cc21 [Example 137, 4,6-Difluoro-N-(3-(isoxazol-5-yl)-1H-indazol-5-yl)-1-methyl-1H-indazole-5-carboxamide]",≥ 7.00,≥ 7.00,
"COc1ccccc1-c1n[nH]c2ccc(NC(=O)c3c(C)cc4cnnn4c3C)cc12 [Example 46, N-(3-(2-Methoxyphenyl)-1H-indazol-5-yl)-5,7-dimethyl-[1,2,3]triazolo[1,5-a]pyridine-6-carboxamide]",6.00 to 7.00,≥ 7.00,
"Cn1ncc2c(F)c(C(=O)Nc3ccc4[nH]nc(N5Cc6ccccc6C5)c4c3)c(F)cc21 [Example 109, 4,6-Difluoro-N-(3-(isoindolin-2-yl)-1H-indazol-5-yl)-1-methyl-1H-indazole-5-carboxamide]",6.00 to 7.00,≥ 7.00,
